Laboratory results from patent US20160038448A1, “THE INHIBITION OF THE TOXIC EFFECTS OF ISLET AMYLOID FORMATION BY FLURBIPROFEN AND FLURBIPROFEN DERIVATIVES” (The Research Foundation for the State University of New York, priority 2013, published 2016).
Where a chain is given by its changes, count along the chain named. “Also recorded” adds a separate entry of the source. Where a SMILES comes first, the peptide text is derived from it. Bridges are numbered along the chain shown (N, C = ends).

Assays:
H18Q human IAPP = biological target: T1, H18Q human IAPP (Homo sapiens, UniProt P10997, H51Q); assay: Thioflavin-T assay of mutant human IAPP amyloid formation (H18Q); format: biochemical; conditions: 1:20 mixture of mutant with flurbiprofen
T1 construct: Mature, fully processed, Amylin is 37 residues in length, contains a disulfide bond between residues 2 and 7
T1 sequence (P10997 34-70 H51Q): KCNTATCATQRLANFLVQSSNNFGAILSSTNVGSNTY
Text: (§1) A mixture of flurbiprofen (20 parts) and human IAPP (1 part) was monitored by fluorescence detected thioflavin-T assays. The assays monitored the time course of amyloid formation (amount vs time) in the presence and absence of flurbiprofen. The effect of flurbiprofen in wild-type (WT) human IAPP, and in two mutants of human IAPP was monitored. In one mutant, all of the aromatic amino acids in human IAPP were replaced by […] human IAPP was examined. A second mutant in which […] human IAPP) was also tested.

human IAPP [1] = biological target: T2, human IAPP (Homo sapiens, UniProt P10997); assay: One and two dimensional IR spectroscopy of fibers formed with flurbiprofen; conditions: IAPP:flurbiprofen 1:20; 0.5 mm human IAPP and 10 mM flurbiprofen
T2 construct: Mature, fully processed, Amylin is 37 residues in length, contains a disulfide bond between residues 2 and 7; made in house; host or cells: chemical solid-phase peptide synthesis (Fmoc), no expression host
T2 sequence (P10997 34-70 limits assumed): T1 sequence (P10997 34-70 H51Q) with Q18H
Experimental: One and two dimensional infrared (IR) spectroscopy was used to confirm the presence of beta-sheet structure. Amyloid is rich in beta-sheet structure. IR spectra were recorded of a mixture of […] human IAPP and 10 mM flurbiprofen.

[2] = tested on: human islet cell transplants; assay: Mice transplanted with human islet cell transplants; format: in vivo, mouse; conditions: example in present tense
Experimental: Mice transplanted with human islet cell transplants are treated with flurbiprofen or a flurbiprofen derivative.

[3] = tested on: human IAPP transgenic mouse islets; assay: Amyloid formation induced in human IAPP transgenic mouse islets; format: cell-based; conditions: example in present tense
Text: Amyloid formation is induced in human IAPP transgenic mouse islets in the presence and absence of flurbiprofen or a flurbiprofen derivative.

[4] = NMR spectra and pulse field gradient NMR diffusion (aggregation of the compound); format: physicochemical
Experimental: Flurbiprofen was dissolved at 32 micro molar and at 640 micromolar and Nuclear Magnetic Resonance (NMR) spectra were recorded.
A sample of 640 micromolar Flurbiprofen was prepared and pulse field gradient NMR experiments were conducted to determine the diffusion coefficient of the compound. The diffusion coefficient is directly related to the hydrodynamic radius of the compound. The NMR intensity decay curve was monitored for the methyl group NMR signal. The best fit to the data yields a hydrodynamic radius of 3.9 Å.

rat INS-1 beta-cells = assay: AlamarBlue cell viability of beta-cells given aliquots of the IAPP amyloid time course; format: cell-based; conditions: for presence and toxic effects of intermediates of amyloid formation: human IAPP with compound
Experimental: FIG. 5. […] (A) A thioflavin-T monitored time course of amyloid formation in the presence and absence of flurbiprofen. […] 20 mM Tris-HCl buffer with 0.25% DMSO was used as the control.
The presence of toxic intermediates is reduced when amyloid formation is accelerated by use of flurbiprofen or a flurbiprofen derivative. A thioflavin-T monitored time course of amyloid formation by human IAPP was conducted in the presence and absence of flurbiprofen. Aliquots were removed at various time points and applied to rat INS-1 beta-cells; at thirty minutes, at 12 hours, at 48 hours. Cell viability as judged by AlamarBlue assays. 20 mM Tris-HCl buffer with 0.25% DMSO was used as the control.

[5] = biological target: T3, I26P human IAPP point mutant (Homo sapiens, UniProt P10997, I59P); assay: Thioflavin-T assay and TEM with non-amyloidogenic point mutant; format: biochemical; conditions: 20 fold excess of Flurbiprofen; vesicles as control experiment
T3 construct: Mature, fully processed, Amylin is 37 residues in length, contains a disulfide bond between residues 2 and 7
T3 sequence (P10997 34-70 I59P): T1 sequence (P10997 34-70 H51Q) with Q18H, I26P
Experimental: The […] human IAPP point mutant was incubated with Flurbiprofen (20 fold excess of Flurbiprofen) and the mixture was monitored by fluorescence detected thioflavin-T assays. […] Transmission electron microscopy was used to confirm the absence of amyloid. The […] human IAPP point mutant was incubated with 100 nm vesicles composed of 100% anionic lipids as a control experiment. The mixture was monitored by fluorescence detected thioflavin-T assays. […] Transmission electron microscopy was used to confirm the presence of amyloid.

[6] = biological target: T4, 3XL-IAPP mutant (F15L, F23L, Y37L human IAPP) (Homo sapiens, UniProt P10997, F48L/F56L/Y70L); assay: Thioflavin-T assay of mutant human IAPP amyloid formation (3XL); format: biochemical; conditions: 1:20 mixture of mutant with flurbiprofen
T4 construct: Mature, fully processed, Amylin is 37 residues in length, contains a disulfide bond between residues 2 and 7
T4 sequence (P10997 34-70 F48L/F56L/Y70L): T1 sequence (P10997 34-70 H51Q) with F15L, Q18H, F23L, Y37L
Text: as §1

[7] = tested on: 3XL-IAPP mutant (F15L, F23L, Y37L human IAPP); assay: as above; format: biochemical; conditions: WT human IAPP and mutant IAPP compared
Text: as §1

A-beta(1-40) = biological target: T5, A-beta(1-40) (Homo sapiens, UniProt P05067); assay: Thioflavin-T assay of A-beta(1-40) amyloid formation; format: biochemical; conditions: flurbiprofen 20 parts, A-beta(1-40) 1 part
T5 construct: A mixture of flurbiprofen (20 parts) and A-beta(1-40) (1 part)
Text: A mixture of flurbiprofen (20 parts) and A-beta(1-40) (1 part) was monitored by fluorescence detected thioflavin-T assays. The assays monitored the time course of amyloid formation (amount vs time) in the presence and absence of flurbiprofen.

human IAPP [8] = biological target: T2, human IAPP; assay: Seeding experiments monitored by thioflavin-T; format: biochemical; conditions: 10% seeds by mass from 1:20 IAPP:flurbiprofen mixture
Experimental: Seeding experiments were conducted using the products of the experiment conducted with the mixture of flurbiprofen (20 parts) and human IAPP. Seeding refers to the addition of a small […] of pre-formed amyloid fibers to an initially unaggerated solution of polypeptide. Addition of the amyloid fibers leads to a by passing of the lag phase. […] 10% seeds, by mass, were added to unaggerated human IAPP and amyloid formation monitored by fluorescence detected thioflavin-T assays.

human IAPP [9] = biological target: T2, human IAPP; assay: Fluorescence detected thioflavin-T assay of the time course of amyloid formation; format: biochemical
Experimental: Peptides were first dissolved in 100% hexafluoroisopropanol (HFIP) at a concentration 1.6 mM and then filtered to remove any preformed amyloid aggregates. For thioflavin-T fluorescence assays, aliquots were lyophilized and redissolved in pH 7.4, 20 mM Tris-HCl buffer at the desired concentration. Aspirin and Ketoprofen were prepared in 100% dimethyl sulfoxide (DMSO).
Solutions were prepared by adding pH 7.4, 20 mM Tris buffer and thioflavin-T to lyophilized dry peptides for a final peptide concentration of […]. For the studies of Aspirin and Ketoprofen, 0.25% DMSO was present in the solution. Measurements were made at 25° C. using a Beckman Coulter DTX880 plate reader without stirring. An excitation filter of 430 nm and an emission filter of 485 nm were used. To test disaggregate activity of Aspirin, peptide was first incubated in low-binding 96-wells plate and monitored by plate reader to ensure the formation of amyloid fibrils.
A mixture of flurbiprofen (1-20 parts) and human IAPP (1 part) was monitored by fluorescence detected thioflavin-T assays. The assays monitored the time course of amyloid formation (amount vs time) in the presence and absence of flurbiprofen.
A mixture of OH-flurbiprofen and human IAPP were monitored by fluorescence detected thioflavin-T assays. Three different concentrations (1:1 ratio, 1:10 ratio and 1:20 ratio of IAPP to OH-flurbiprofen) were tested against human IAPP without any added OH-flurbiprofen. The assays monitored the time course of amyloid formation (amount vs time) in the presence and absence of a flurbiprofen derivative.
Three different mixtures of NSAIDs (20 parts) and human IAPP (1 parts) were compared to each other and human IAPP alone by fluorescence detected thioflavin-T assays. The assays monitored the time course of amyloid formation (amount vs time) in the presence and absence of aspirin, naproxen and flurbiprofen.

[10] = Marek at al. 2007; cited from earlier work
[11] = Parallel biophysical and cell viability experiments on h-IAPP variants; format: cell-based
Experimental: Parallel biophysical and cell viability experiments were conducted using a range of conditions that alter the length of the lag phase. h-IAPP amyloid kinetics are concentration-dependent. Decreasing the peptide concentration leads to an increase in the length of the lag phase, while an increase in human-IAPP concentration leads to a shortening of the lag phase. The length of the lag phase can also be controlled by altering the temperature. Lower temperatures lead to a longer lag phase; the lag phase is 2-fold longer at 15° C. […] A set of rationally designed Ser-20 mutations were used. Ser-20 is located at a critical position in the h-IAPP sequence and modulates its aggregation kinetics. […] Toxicity and kinetics experiments were performed on the Ser-20 mutants. […] An human-IAPP triple mutant, 3×L-IAPP, in which Leu replaced the three aromatic residues (Phe-15, Phe=23 and Tyr-37) was tested. This mutant forms amyloid 9-fold more slowly than wild type human IAPP (Marek at al. 2007). […] The duration of toxicity for all the mutants and for all the conditions with human IAPP wild type correlated with the length of the respective lag phases.

T5 sequence (P05067 672-711): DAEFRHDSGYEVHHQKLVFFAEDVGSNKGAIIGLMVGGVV

With `CC(C(=O)O)c1ccc(-c2ccccc2)c(F)c1` (racemic) [Flurbiprofen, (RS)-2-(2-fluorobiphenyl-4-yl)propanoic acid] the “effect on amyloid formation by H18Q-IAPP mutant” value (H18Q human IAPP) was “accelerates amyloid formation”, the “effect on amyloid formation by H18Q-IAPP mutant” value (H18Q human IAPP; listed as flurbiprofen) was “effected the mutant the same way as it did the wild type” and the “β-structure of flurbiprofen induced aggregates (IR)” value (human IAPP [1]) was “rich in β-structure”. The “survival of islet cell transplants” value [2] was “enhances the survival of the islet cell transplants”, the “toxic effects of amyloid formation in islets” value [3] was “reduces the toxic effects of amyloid formation” and the “aggregation state of the compound (NMR peak positions and line widths)” value ([4]; 32 and 640 micro molar samples) was “independent of the concentration of the compound; also recorded: did not aggregate; also recorded: monomeric”. The “hydrodynamic radius (PFG-NMR)” value ([4]; 640 micromolar, methyl resonance decay curve) was 3.9 Å, the “protection of β-cells against IAPP induced toxicity (cell viability, AlamarBlue)” value (rat INS-1 beta-cells; aliquots at thirty minutes, 12 hours, 48 hours of IAPP time course with and without flurbiprofen) was “protects β-cells against IAPP induced toxicity” and the “presence and toxic effects of intermediates of amyloid formation” value (from here on “presence and toxic effects”) (rat INS-1 beta-cells) was “reduced the presence and toxic effects of intermediates of amyloid formation in a dose dependent fashion”. The “presence and toxic effects” value (rat INS-1 beta-cells; listed as Flurbiprofen racemate) was “reduced the presence and toxic effects of intermediates of amyloid formation”, the “presence and toxic effects” value (rat INS-1 beta-cells; listed as flurbiprofen) was “reduced” and the “induction of amyloid formation by I26P-IAPP (thioflavin-T, TEM)” value [5] was “No increase in fluorescence is detected; also recorded: did not induced amyloid formation; also recorded: does not induce the non-amyloidogenic point mutant I26P-IAPP to form amyloid fibers”. For the same compound, the “effect on amyloid formation by 3XL-IAPP mutant” value [6] was “had the same effect; also recorded: accelerates amyloid formation”, the “acceleration of amyloid formation and reduction of toxic effects of intermediates, WT human IAPP versus mutant IAPP” value [7] was “about equally” and the “effect on A-beta(1-40) amyloid formation kinetics” value (A-beta(1-40)) was “did not influence the kinetics of amyloid formation by A-beta(1-40); also recorded: does not accelerate amyloid formation by the Aβ1-40 peptide”. The “seeding of human IAPP amyloid formation by fibers formed with flurbiprofen” value (human IAPP [8]) was “extremely effective at seeding amyloid formation by human IAPP”, the “effect on human IAPP amyloid formation (thioflavin-T time course)” value (shortened to “effect on human IAPP amyloid formation”) (human IAPP [9]; 1:1 ratio of human IAPP and compound) was “showed acceleration of amyloid formation” and the “effect on human IAPP amyloid formation” value (human IAPP [9]; 20 to 1 ratio of compound to human IAPP) was “strongest effect of accelerating human IAPP amyloid formation”. The “effect on human IAPP amyloid formation” value (human IAPP [9]; 20 to 1 ratio of compound to human IAPP, listed as Flurbiprofen racemate) was “accelerated islet amyloid formation”, the “effect on human IAPP amyloid formation” value (human IAPP [9]; 20 to 1 ratio of compound to human IAPP, listed as racemic mixture) was “equally effective” and the “effect on human IAPP amyloid formation” value (human IAPP [9]; IAPP:compound ratios 1:1 to 1:20, pH 7.4, 20 mM Tris, 25° C.) was “accelerated islet amyloid formation”.
In the case of `CC[C@H](C)[C@H](NC(=O)[C@H](C)NC(=O)CNC(=O)[C@H](CC(C)C)NC(=O)[C@H](CC(N)=O)NC(=O)[C@H](CC(N)=O)NC(=O)[C@H](CO)NC(=O)[C@H](CO)NC(=O)[C@H](Cc1c[nH]cn1)NC(=O)[C@@H](NC(=O)[C@H](CC(C)C)NC(=O)[C@H](CC(C)C)NC(=O)[C@H](CC(N)=O)NC(=O)[C@H](C)NC(=O)[C@H](CC(C)C)NC(=O)[C@H](CCCNC(=N)N)NC(=O)[C@H](CCC(N)=O)NC(=O)[C@@H](NC(=O)[C@H](C)NC(=O)[C@@H]1CSSC[C@H](NC(=O)[C@@H](N)CCCCN)C(=O)N[C@@H](CC(N)=O)C(=O)N[C@@H]([C@@H](C)O)C(=O)N[C@@H](C)C(=O)N[C@@H]([C@@H](C)O)C(=O)N1)[C@@H](C)O)C(C)C)C(=O)N[C@@H](CC(C)C)C(=O)N[C@@H](CO)C(=O)N[C@@H](CO)C(=O)N[C@H](C(=O)N[C@@H](CC(N)=O)C(=O)N[C@H](C(=O)NCC(=O)N[C@@H](CO)C(=O)N[C@@H](CC(N)=O)C(=O)N[C@H](C(=O)N[C@@H](CC(C)C)C(N)=O)[C@@H](C)O)C(C)C)[C@@H](C)O` [3×L-IAPP] (H-KCNTATCATQRLANLLVHSSNNLGAILSSTNVGSNTL-NH2; disulfide 2-7), the “amyloid formation slower than wild type human IAPP” value [10] is given as 9 fold and the “onset and duration of toxicity relative to wild type human IAPP” value [11] is given as “longer duration of toxicity”.
